This passage reports GI50 and TGI results from PubChem BioAssay (NCI).

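Growth conditions: 96-well plates. Treatment: test compound, 48 hours, 5 concentrations. Analysis: linear interpolation between bracketing concentrations; unreached endpoints set to highest concentration. GI50 is the concentration that inhibits growth by half. TGI marks complete inhibition of growth.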 A value given as a limit tells only on which side of the number the result lay.

Some test systems named below: SW-620 colon; OVCAR-5 ovarian; COLO 205 colon; NCI-H460 lung; K-562 leukemia; 786-0 renal; MDA-MB-231 breast; SNB-75 CNS; OVCAR-8 ovarian; EKVX NSCLC.
Holding throughout (assay): growth of human tumour cells (NCI), 48 h

Turning to `Cn1cc(C2=C(c3c4n(c5ccccc35)CCC(CN)C4)C(=O)NC2=O)c2ccccc21` (centres undefined), the GI50 in the test on SW-620 colon was 2.96 µM; with OVCAR-5 ovarian, 2.94 µM; in the test on COLO 205 colon, 1.63 µM; in the test on NCI-H460 lung it was 3.32 µM; with K-562 leukemia, 3.54 µM; in the test on 786-0 renal it was 4.25 µM. Further, the GI50 in the test with MDA-MB-231 breast was 2.53 µM; in the test on SNB-75 CNS, 0.594 µM; in the test with OVCAR-8 ovarian it was 3.77 µM. The TGI turned out to be 6.69 µM with SW-620 colon; 7.15 µM with OVCAR-5 ovarian; 5.15 µM in the test on COLO 205 colon; 7.05 µM with NCI-H460 lung; 8.27 µM with K-562 leukemia; 8.38 µM in the test with 786-0 renal. Further, the TGI with MDA-MB-231 breast came to 6.05 µM; in the test with SNB-75 CNS, 4.05 µM; in the test with OVCAR-8 ovarian it was 8.92 µM.
`CC(N)(/C=C/c1ccccc1)C(=O)O` (centres undefined): the TGI in the test on SW-620 colon, in the test on OVCAR-5 ovarian, in the test on COLO 205 colon, in the test on NCI-H460 lung, in the test on K-562 leukemia and in the test on 786-0 renal was greater than 100 µM in each case. The TGI in the test on MDA-MB-231 breast, in the test with EKVX NSCLC and in the test with OVCAR-8 ovarian was greater than 100 µM in each case.
Consider `C=C1C(=O)O[C@H]2[C@H]1CC/C(C=Nc1c(N)cc(C(F)(F)F)cc1C(F)(F)F)=C\CC[C@@]1(C)O[C@@H]21`, for which the GI50 in the test with SW-620 colon was 1.23 µM; in the test on OVCAR-5 ovarian, 1.87 µM; with COLO 205 colon, 1.35 µM; in the test on NCI-H460 lung, 1.53 µM; with K-562 leukemia, 1.24 µM; in the test on 786-0 renal, 2.04 µM. Besides, the figures for the GI50 in the test with MDA-MB-231 breast, in the test on SNB-75 CNS and with OVCAR-8 ovarian were 1.38 µM, 1.78 µM and 1.79 µM, respectively. The TGI with SW-620 colon is 2.95 µM; with OVCAR-5 ovarian, 4.59 µM; with COLO 205 colon, 3.04 µM; in the test with NCI-H460 lung, 3.38 µM; in the test with K-562 leukemia it was 9.53 µM; with 786-0 renal, 4.11 µM. For the same compound, the TGI in the test on MDA-MB-231 breast is 3.79 µM; with SNB-75 CNS, 15.4 µM; with OVCAR-8 ovarian, 9.85 µM.
Regarding `O=c1c2ccccc2nc(/C=C(\O)c2ccncc2)n1-c1ccc(Cl)cc1`, the TGI in the test with SW-620 colon, in the test with OVCAR-5 ovarian, with COLO 205 colon, in the test on NCI-H460 lung, with K-562 leukemia and in the test on 786-0 renal was greater than 100 µM in each case. For the same compound, the TGI is greater than 100 µM in the test with EKVX NSCLC, 61.7 µM in the test with SNB-75 CNS and greater than 100 µM in the test on OVCAR-8 ovarian.
With `Cc1cc(Nc2ncc3c(n2)N(C)C(=O)N(c2cc(NC(=O)c4cccc(C(F)(F)F)c4)ccc2C)C3)n(C)n1`, the GI50 is 0.0539 µM with SW-620 colon; 0.0539 µM with OVCAR-5 ovarian; 0.019 µM in the test on COLO 205 colon; 0.0832 µM in the test with NCI-H460 lung; less than 0.01 µM with K-562 leukemia; 0.0599 µM in the test with 786-0 renal. Also, the figures for the GI50 with MDA-MB-231 breast and with SNB-75 CNS were 0.0255 µM and 0.0217 µM, respectively. The TGI in the test with SW-620 colon is greater than 46.4 µM; with COLO 205 colon, 0.0368 µM; in the test on NCI-H460 lung, greater than 46.4 µM; in the test on K-562 leukemia it was greater than 46.4 µM; with 786-0 renal, greater than 46.4 µM; in the test on MDA-MB-231 breast, 0.164 µM. In addition, the TGI in the test with SNB-75 CNS is 0.0699 µM.
On to `O=C(OC1CCC2OOC1O2)c1ccc([N+](=O)[O-])cc1` (centres undefined), for which the TGI in the test with SW-620 colon, with OVCAR-5 ovarian, with COLO 205 colon, with NCI-H460 lung, with K-562 leukemia and with 786-0 renal was greater than 100 µM each time. For the same compound, the TGI with EKVX NSCLC, in the test with SNB-75 CNS and in the test with OVCAR-8 ovarian was greater than 100 µM in each case.
For `CCOC(=O)Nc1nc2ccc(Br)cc2s1`, the GI50 in the test on SW-620 colon, in the test with OVCAR-5 ovarian, in the test on COLO 205 colon, with NCI-H460 lung, in the test with K-562 leukemia and in the test with 786-0 renal was greater than 50 µM throughout. Besides, the GI50 with MDA-MB-231 breast, in the test on SNB-75 CNS and with OVCAR-8 ovarian was greater than 50 µM each time. Also, the TGI in the test on SW-620 colon, with OVCAR-5 ovarian, with COLO 205 colon, in the test with NCI-H460 lung, in the test with K-562 leukemia and in the test with 786-0 renal was greater than 50 µM throughout. For the same compound, the TGI in the test on MDA-MB-231 breast, in the test on SNB-75 CNS and in the test with OVCAR-8 ovarian was greater than 50 µM each time.
As for `[Cl][Hg][c]1ccc(Cl)s1`, the GI50 was 1.04 µM in the test with SW-620 colon; 1.72 µM in the test with OVCAR-5 ovarian; 1.39 µM in the test on COLO 205 colon; 8.9 µM in the test on NCI-H460 lung; 0.729 µM with K-562 leukemia; 1.29 µM in the test on 786-0 renal. The GI50 with EKVX NSCLC is 5.72 µM; in the test on SNB-75 CNS, 3.57 µM; in the test on OVCAR-8 ovarian, 2.51 µM. For the same compound, the TGI in the test on SW-620 colon stood at 2.59 µM; in the test on OVCAR-5 ovarian it was 3.29 µM; with COLO 205 colon, 2.9 µM; with NCI-H460 lung, 35.7 µM; with K-562 leukemia, 7.29 µM; in the test on 786-0 renal, 2.61 µM. The TGI came out at 20.2 µM with EKVX NSCLC, 17.3 µM in the test with SNB-75 CNS and 6.25 µM in the test with OVCAR-8 ovarian.
As to `CCC(O)C1Cc2c(C)cc3c(c2O1)C(=O)c1ccccc1C3=O` (centres undefined), the TGI is greater than 100 µM with SW-620 colon; greater than 100 µM with OVCAR-5 ovarian; 33.1 µM in the test on COLO 205 colon; greater than 100 µM in the test with NCI-H460 lung; greater than 100 µM with K-562 leukemia; 62.7 µM in the test with 786-0 renal. Moreover, the TGI in the test on EKVX NSCLC, in the test on SNB-75 CNS and in the test with OVCAR-8 ovarian was greater than 100 µM in each case.
With `Clc1ccc(Nc2ccnc(N3CCN(c4ccnc5cc(Cl)ccc45)CC3)n2)cc1`, the GI50 was 2.88 µM in the test with SW-620 colon; 1.92 µM with COLO 205 colon; 2.33 µM in the test on NCI-H460 lung; 2.56 µM in the test on K-562 leukemia; 2.38 µM with 786-0 renal; 2.22 µM with MDA-MB-231 breast. For the same compound, the figures for the GI50 in the test with SNB-75 CNS and in the test with OVCAR-8 ovarian were 1.79 µM and 3.15 µM, respectively. For the same compound, the TGI in the test with SW-620 colon is 11.6 µM; in the test with COLO 205 colon, 4.63 µM; in the test with NCI-H460 lung it was 6.76 µM; with K-562 leukemia, 7.94 µM; in the test with 786-0 renal, 7.88 µM; with MDA-MB-231 breast it was 7.22 µM. Further, the TGI came to 7.29 µM with SNB-75 CNS and 21.3 µM in the test on OVCAR-8 ovarian.
